Laboratory results taken from patent US4329295A, “24-Cyclopropylcholene-3β, 22-diols and esters thereof” (G. D. Searle & Co., priority 1981, dated 1982).

System: HMG Co A reductase
Assay: Reduction of HMG Co A reductase activity in liver microsomes of rats treated with 20,25-diazacholesterol and test compound
Assay type: in vivo, rat
Conditions: male CD rats, test compound given last 3 days with 20,25-diazacholesterol, [14C]-mevalonic acid formation vs control
Method: Male rats of the CD strain from Charles River weighing 180-250 g., initially being kept on a regular laboratory diet, are used. The rats are maintained in reverse light-cycle room for 3-6 days. 20,25-Diazacholesterol is administered for a total of 6 days at a dose of 5 mg/kg/day (IG). The last 3 days the test compound is administered along with the 20,25-diazacholesterol. Both compounds are given 2 hours prior to the test on last day. The rats are anesthetized with ether, sacrificed, and the livers removed. Liver microsomes are collected by differential centrifugation after homogenation. Liver microsomes are used as the source of the HMG Co A reductase. Details of the assay are reported in L. W. White and H. Rudney, Biochemistry 9, 2713 (1970); Brown et al., J. Biol. Chem. 248, 4731 (1973); and C. A. Edwards, Biochem. Biophys. Acts 409, 39 (1975). The percent change in formation of [^ 14 C]-mevalonic acid from [^14 C]-HMG Co A is used as a measure of enzyme activity for treated groups versus control groups of rats. If the treated groups have less activity, and the decrease is statistically significant at P≤0.05, the compound is rated active.

C[C@@H]([C@H]1CC[C@H]2[C@@H]3CC=C4C[C@@H](O)CC[C@]4(C)[C@H]3CC[C@]12C)[C@@H](O)CCC1CC1 [24-cyclopropylchol-5-ene-3β,22S-diol]
inhibition of HMG Co A reductase activity (0.5 mg/kg (IG)): 32% | inhibition of HMG Co A reductase activity (5 mg/kg (IG)): 79%
